Assays:
CXCR4 chemokine receptor = CXCR4 chemokine receptor (Homo sapiens, UniProt P61073); assay: Competition with CXCR4 binding antibodies, flow cytometry; details: competition with anti-human CXCR4 mAb (44708.111), serial dilutions of compound added simultaneously with antibody
Procedure: (§1) The antibodies used in this study were: unconjugated mouse anti-human CXCR4 mAbs clones 44708.111, 44716.111, PE-conjugated clone 44717.111 and 12G5 (R&D Systems Europe, Abingdon, UK). Cells were preincubated with 20 μM of the compound for 30 mins. Thereafter cells were incubated with each of the mAbs for a further 60 mins. In the case of the direct binding assay, serial dilutions of the compound were added simultaneously with the antibody (44708.111). Cells were then incubated with a secondary fluorescein isothiocyanate-conjugated anti-mouse antibody (IgG-FITC) (Serotec, UK) for 30 mins. Cell samples were analysed by a FACScan flow cytometer (BD Biosciences Europe. Erembodegem, Belgium). Data were acquired and analysed with CellQuest software (Becton Dickinson) on an Apple Macintosh computer. Relative percentage inhibitions were calculated from the mean fluorescent intensity of the whole cell population and relative inhibitory concentration (IC) values were obtained by non linear regression analyses using the Graphpad prism software.

HIV-1 (IIIB) = assay: Anti-HIV activity in MT-4 cells, tetrazolium viability, HIV-1; assay type: cell-based; details: Human immunodeficiency virus 1, MT4, 120 h, 5 d, read-out: av IC50
Description: (§2) Anti-HIV activity and cytoxicity measurements in MT-4 cells were based on viability of cells that had been infected or not infected with HIV-1 (IIIB) and HIV-2 (ROD) ×4 strainsexposed to various concentrations of the test compound [following the procedure of S. Harada et al., Science, 1985, 229, 563]. The MT-4 cells were allowed to proliferate for 5 d after which time the number of viable cells was quantified by a tetrazolium-based colorimetric method [described by R. Pauwels et al., Journal of Virology Methods, 1988, 20, 309.]

HIV-2 (ROD) = assay: Anti-HIV activity in MT-4 cells, tetrazolium viability, HIV-2; assay type: cell-based; details: Human immunodeficiency virus 2, MT4, 120 h, 5 d, read-out: av IC50
Description: as §2

[1] = Cytotoxicity in MT-4 cells, tetrazolium viability; assay type: cell-based; details: human, printed in HIV-1 line, read-out: av CC50
Description: as §2

MT-4 cells = assay: Cytotoxicity in MT-4 cells, tetrazolium viability; assay type: cell-based; details: 5 d, printed in HIV-2 line, read-out: av CC50
Description: as §2

CXCR4 receptor = target: T1, CXCR4 receptor (Homo sapiens, UniProt P61073); assay: Binding of rhodamine-tagged macrocycles to jurkat cells, flow cytometry; details: FIG. 1 / FIG. 2
T1 construct: endogenous in cells; host or cells: Jurkat cells
T1 sequence (P61073 whole entry): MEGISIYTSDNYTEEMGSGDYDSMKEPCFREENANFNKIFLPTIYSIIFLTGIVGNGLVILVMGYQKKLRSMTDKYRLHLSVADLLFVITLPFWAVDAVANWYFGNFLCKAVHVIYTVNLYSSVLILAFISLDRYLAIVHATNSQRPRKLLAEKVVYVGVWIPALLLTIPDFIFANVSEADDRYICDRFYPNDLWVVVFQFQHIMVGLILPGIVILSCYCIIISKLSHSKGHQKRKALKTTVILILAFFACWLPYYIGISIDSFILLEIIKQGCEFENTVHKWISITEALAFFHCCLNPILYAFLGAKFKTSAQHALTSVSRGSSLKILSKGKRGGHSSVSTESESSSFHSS
Procedure: Two monocyclam compounds were tagged with rhodamine and specific binding to the CXCR4 receptor was analysed by incubating with jurkat cells. Cell samples were analysed by flow cytometry as described in example 8, below.
as §1

CXCR4 chemokine receptor, sequence (P61073 whole entry): as above

| SMILES | IC50 (CXCR4 chemokine receptor) | IC90 (CXCR4 chemokine receptor) | IC50 (HIV-1 (IIIB)) | IC50 (HIV-2 (ROD)) | CC50 at 5 d [1] | CC50 (MT-4 cells) | binding to the CXCR4 chemokine receptor (flow cytometry histogram) (CXCR4 receptor) |
| --- | --- | --- | --- | --- | --- | --- | --- |
| c1cc(CN2CCCN3CCN(CCCNCC2)CC3)ccc1CN1CCCN2CCN(CCCNCC1)CC2 [Compound 16] | 17 µM | > 17 µM | 6.98 µM | 23.2 µM | > 225 µM | > 225 µM |  |
| CCN(CC)c1ccc2c(-c3ccc(NC(=S)Nc4ccc(CN5CCCN6CCN(CCCNCC5)CC6)cc4)cc3C(=O)O)c3ccc(=[N+](CC)CC)cc-3oc2c1 [Rhodamine-Bridged Macrocycle Conjugate] |  |  |  |  |  |  | binding of the chelator to the CXCR4 chemokine receptor |
